Target: T1, Tyrosinase (Agaricus bisporus) (UniProt O42713)
T1 sequence (whole entry): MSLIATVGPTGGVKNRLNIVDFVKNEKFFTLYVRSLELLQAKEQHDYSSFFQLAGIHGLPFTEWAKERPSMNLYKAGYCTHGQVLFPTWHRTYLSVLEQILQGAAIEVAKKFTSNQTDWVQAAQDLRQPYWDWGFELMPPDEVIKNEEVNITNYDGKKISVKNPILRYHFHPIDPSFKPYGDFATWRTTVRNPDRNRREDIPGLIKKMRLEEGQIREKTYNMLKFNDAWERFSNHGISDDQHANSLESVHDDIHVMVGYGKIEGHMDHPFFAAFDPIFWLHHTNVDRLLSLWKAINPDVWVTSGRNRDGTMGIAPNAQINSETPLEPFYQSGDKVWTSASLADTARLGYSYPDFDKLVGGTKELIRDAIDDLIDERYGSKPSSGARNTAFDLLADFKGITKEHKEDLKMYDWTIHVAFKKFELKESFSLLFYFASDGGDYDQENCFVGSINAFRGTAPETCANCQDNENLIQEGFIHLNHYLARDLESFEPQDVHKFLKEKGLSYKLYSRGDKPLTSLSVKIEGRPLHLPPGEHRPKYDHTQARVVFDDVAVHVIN
Assay: Ratio IC50 for Kojic acid to compound for diphenolase activity of mushroom tyrosinase

| Ratio IC50 | Compound |
| --- | --- |
| 9 | NC(=S)N/N=C/c1cc(=O)c(O)co1 |

System: not listed separately
Assay: Dissociation constant, pKa of the compound
Format: physicochemical

| pKa | Compound |
| --- | --- |
| 5 | N/C(S)=N/N=C/c1ccccn1 |
| 0.5 | NC(=S)N/N=C/c1ccco1 |
| 0.5 | NC(=S)N/N=C/c1ccc[nH]1 |

Target: T2, Tyrosinase (Agaricus bisporus, UniProt O42713)
T2 sequence (O42713 whole entry): T1 sequence (whole entry)
Description: Inhibition of diphenolase activity of mushroom tyrosinase using L-DOPA as substrate preincubated for 5 mins by spectroscopic method

| IC50 [µM] | Compound |
| --- | --- |
| > 2000 | NC(=S)N/N=C/c1ccc2[nH]ccc2c1 |
| 45 | N/C(S)=N/N=C/c1ccccn1 |
| 6 | NC(=S)N/N=C/c1ccco1 |
| 32 | NC(=S)N/N=C/c1ccccc1F |
| 70 | NC(=S)N/N=C/c1ccc2ccccc2n1 |
| 9 | NC(=S)N/N=C/c1cccc(F)c1 |
| > 2000 | Cn1cc(/C=N/NC(N)=S)c2ccccc21 |
| 11 | NC(=S)N/N=C/c1ccc(F)cc1 |
| 7 | NC(=S)N/N=C/Cc1ccccc1 |
| 8 | NC(=S)N/N=C/c1ccc[nH]1 |
| 1700 | Cn1c(/C=N/N=C(/N)S)cc2ccccc21 |
| 400 | NC(=S)N/N=C/CCc1ccccc1 |

Second part, the molecule before the results:

| Compound | IC50 [µM] |
| --- | --- |
| NC(=S)N/N=C/c1ccc2ccccc2c1 | 1100 |
| COc1coc(/C=N/NC(N)=S)cc1=O | > 2000 |
| NC(=S)N/N=C/c1cc2ccccc2[nH]1 | 402 |
| NC(=S)N/N=C/c1c[nH]c2ccccc12 | 600 |
| Cc1[nH]c2ccccc2c1/C=N/NC(N)=S | > 2000 |
| NC(=S)N/N=C/c1cc(=O)c(O)co1 | 11 |
| Cn1ccc2cc(/C=N/NC(N)=S)ccc21 | > 2000 |
| NC(=S)N/N=C/c1cccc2ccccc12 | 12 |

Source: ChEMBL document CHEMBL1817639, “Refinement of arylthiosemicarbazone pharmacophore in inhibition of mushroom tyrosinase” (Eur J Med Chem, 2011)
